Results reported in patent US20260248087A1, “GENERATING DOUBLED HAPLOID PLANTS” (Syngenta Crop Protection AG, priority 2023, published 2026).
Several values for one entry are separate records, joined by “and”; a condition that tells them apart may be missing. Equal values may be shown once.

How the values were obtained:
[1] = system: corn embryos; assay: Uptake of metcamifen and metabolism of colchicine in corn embryos (LCMS); format: in vitro ADME
Method: An experiment was completed to evaluate the uptake of metcamifen into corn embryos, whether colchicine is metabolized in the embryos, and if metcamifen increased the rate of colchicine metabolism. Corn embryos were co-treated with 500 ppm colchicine in the presence of 200 ppm, 1000 ppm or no metcamifen (control) for 24 or 48 hours and frozen. One biological replicate was represented by five embryos, and three biological replicates were used per co-treatment.
Prior to extraction, embryos were washed for 20 seconds in 80:20 (v/v) acetonitrile:H2O to remove any colchicine and metcamifen on the surface. Each replicate was extracted in 0.5 ml methanol using a fast prep maceration method. Then, samples were diluted 1 in 10 prior to analysis by Liquid Chromatography Mass Spectrometry (LCMS). Samples were analyzed alongside matrix matched standards of colchicine and metcamifen. Metabolite investigations were performed to identify any metabolites.

[2] = system: embryos from maize ears; assay: Potting and transplant rate, co-treatment with metcamifen and thiamethoxam during colchicine doubling; format: in vivo
Description: (§1) As used herein, the term “potted rate” or “potting rate” refers to the percent of germinated embryos successfully transferred to soil from total treated haploid embryos. The “potted rate” is used as an indication of plant health in monitoring the success of recovery and growth after treatment of haploids. As used herein, the term “transplant rate” refers to the survival of healthy plants after embryos were germinated and transferred to soil.
(§2) To assess the impact of the safener and vigor enhancing compounds on the full DH production pipeline, experiments were designed and conducted spanning haploid embryo isolation, doubling treatment, germination, potting, growth to maturity, selfing, and seed set evaluation. Embryos from maize ears of two genotypes were isolated and co-treated with both metcamifen and thiamethoxam during the colchicine doubling treatment, in triplicate. Metcamifen was added in the Murashige and Skoog Medium (MS medium) at concentrations ranging from 400 to 800 mg/L in combination with TMX at concentrations ranging from 4000 to 6000 mg/L. Control co-treatments with metcamifen alone, TMX alone, or colchine-only were run in parallel. Concentrations for co-treatments were selected based on best outcomes from experiments in Examples 1-8. The co-treatments incubated for 24 and 48 hours at 28° C. with 150 PAR light. Resulting embryos were germinated and the percentage of embryos successfully transferred to soil was measured as the potting rate. The survival of healthy plants was measured as the transplant rate.

[3] = system: embryos from maize ears; assay: Ear kernel setting rates and DH yield after co-treatment with metcamifen and thiamethoxam; format: in vivo; conditions: for Ears >4 Rate Mean / Ears >49 Rate Mean: co-treatment with colchicine
Method: as §2, with “transplant rate. […]” for “transplant rate.”
One way of measuring the success of DH production is a ratio of output:input, defined as “DH yield”, where a larger ratio is typically desirable for a more efficient production system. In this study, we measured this in two ways: DH ears/total haploid embryos and DH ears/transplants (see Table 15).

[4] = system: GST27; assay: GST27 induction, metcamifen and thiamethoxam co-treatment in liquid medium; format: cell-based, maize
Method: For the examples below, GST27 was used as a quick indicator for treatment effectiveness.
(§3) Isolated embryos were placed in a Petri dish on filter paper wetted with liquid Murashige and Skoog Medium (MS medium) containing colchicine and a formulation of metcamifen at 800 mg/L, TMX at 4000 mg/L, or a combination of 800 mg/L metcamifen and 4000 mg/L TMX. The colchicine treatment control used the same conditions except with a medium containing 3.5 g/L Gelzan as compared to the liquid medium without Gelzan. The co-treatments incubated for 24 or 48 hours at 28° C. with 150 PAR light and were conducted on 2 genotypes with 2 replicates. The effects on GST expression, potting rate, and transplant rate are reported (see Table 16). The rate of diploid escapes observed increased to 6.4-8.5% in the 24-hour co-treatments with 4000 mg/L TMX and 4000 mg/L TMX combined with 800 mg/L metcamifen. In all other co-treatments, the escape rate was 0%. […] The best transplant rates observed were in the 24-hour duration 4000 mg/L TMX co-treatment (90%) compared to the control (72%).
(§4) In a separate experiment, additional concentrations of metcamifen and TMX co-treatment were tested in liquid co-treatments. The experimental setup was the same as described above for the data in Table 16, but the co-treatment concentrations were varied. […] The decreased concentrations were associated with lower rates of escapes in the 24-hour co-treatments, only the metcamifen with TMX combination co-treatment produced escapes (1.8%). Potting and transplant rates remained high, with the best performance in the 24-hour metcamifen with TMX combination co-treatment (96% potting, and 87% transplant) compared to the colchicine-only control (60% potting, and 47% transplant) (see Table 17). In all liquid media co-treatments, higher rates of bacterial and/or fungal contamination were observed. In total, 35% of the attempted experiments were discarded due to contamination issues and excluded from the data analysis.

[5] = system: isolated embryos; assay: Potting and transplant rate, metcamifen and thiamethoxam co-treatment in liquid medium; format: in vivo, maize
Description: as §1, §3, §4

[6] = Table 16, liquid medium: metcamifen 800 mg/L, 24 Hour
[7] = Table 16, liquid medium: metcamifen 800 mg/L, 48 Hour
[8] = Table 17, liquid medium: metcamifen 800 mg/L, 24 Hour
[9] = Table 17, liquid medium: metcamifen 800 mg/L, 48 Hour
[10] = Table 16, liquid medium: TMX 4000 mg/L, 24 Hour
[11] = Table 16, liquid medium: TMX 4000 mg/L, 48 Hour
[12] = Table 17, liquid medium: TMX 4000 mg/L, 24 Hour
[13] = Table 17, liquid medium: TMX 6000 mg/L, 48 Hour

**Q.** What does the source list for `CNC(=O)Nc1ccc(S(=O)(=O)NC(=O)c2ccccc2OC)cc1` [Metcamifen, metcamifen]?
**A.** effect of metcamifen on amount of colchicine recovered ([1]; 500 ppm colchicine with 200 or 1000 ppm metcamifen): did not reduce the amount of colchicine recovered; metcamifen in embryo extracts (uptake) ([1]; co-treated with 500 ppm colchicine and 200 or 1000 ppm metcamifen, 24 and 48 hours): could be detected; recovery amount of colchicine metabolite (−14, O-demethylation) ([1]; duration and metcamifen co-treatment): increased; Potted Rate Mean ([2]; metcamifen 800 mg/L, 24 hours): 76%; Transplant Rate Mean ([2]; metcamifen 800 mg/L, 24 hours): 68%; Potted Rate Mean ([2]; metcamifen 800 mg/L, 48 hours): 15%; Transplant Rate Mean ([2]; metcamifen 800 mg/L, 48 hours): 15%; Ears >4 Rate Mean ([3]; metcamifen 800 mg/L, 24 hours): 38%; Ears >49 Rate Mean ([3]; metcamifen 800 mg/L, 24 hours): 24%; Ears >4 Rate Mean ([3]; metcamifen 800 mg/L, 48 hours): 9%; Ears >49 Rate Mean ([3]; metcamifen 800 mg/L, 48 hours): 4%; Ears >4 DH Yield, DH Ears/Total Haploids, Mean ([3]; metcamifen 800 mg/L, 24 hours): 0.33; Ears >4 DH Yield, DH Ears/Transplants, Mean ([3]; metcamifen 800 mg/L, 24 hours): 0.47; Ears >49 DH Yield, DH Ears/Total Haploids, Mean ([3]; metcamifen 800 mg/L, 24 hours): 0.21; Ears >49 DH Yield, DH Ears/Transplants, Mean ([3]; metcamifen 800 mg/L, 24 hours): 0.30; Ears >4 DH Yield, DH Ears/Total Haploids, Mean ([3]; metcamifen 800 mg/L, 24 hours, listed as metcamifen): increased significantly; Ears >4 DH Yield, DH Ears/Total Haploids, Mean ([3]; metcamifen 800 mg/L, 48 hours): 0.07; Ears >4 DH Yield, DH Ears/Transplants, Mean ([3]; metcamifen 800 mg/L, 48 hours): 0.61; Ears >49 DH Yield, DH Ears/Total Haploids, Mean ([3]; metcamifen 800 mg/L, 48 hours): 0.03; Ears >49 DH Yield, DH Ears/Transplants, Mean ([3]; metcamifen 800 mg/L, 48 hours): 0.25; GST27 Induction After [4, 6]: 270 ng/mg TSP; GST27 Induction Before [4, 6]: 0 ng/mg TSP; GST27 Induction After [4, 7]: 396 ng/mg TSP; GST27 Induction Before [4, 7]: 0 ng/mg TSP; GST27 Induction After [4, 8]: 263 ng/mg TSP; GST27 Induction Before [4, 8]: 0 ng/mg TSP; GST27 Induction After [4, 9]: 340 ng/mg TSP; GST27 Induction Before [4, 9]: 4 ng/mg TSP; Potting Rate Mean [5, 6]: 92.5%; Transplant Rate Mean [5, 6]: 88.2%; Potting Rate Mean [5, 7]: 21.5%; Transplant Rate Mean [5, 7]: 20.4%; Potting Rate Mean [5, 8]: 86.2%; Transplant Rate Mean [5, 8]: 74.1%; Potting Rate Mean [5, 9]: 9.2%; Transplant Rate Mean [5, 9]: 9.2%

**Q.** With `CN1COCN(Cc2cnc(Cl)s2)/C1=N\[N+](=O)[O-]` [TMX, thiamethoxam] as the molecule, how does the “Potted Rate Mean” value ([2]; TMX 4000 mg/L, 48 hours) read?
**A.** 79%

**Q.** And the “Transplant Rate Mean” value ([2]; TMX 4000 mg/L, 48 hours)?
**A.** 77%

**Q.** What about the “Potted Rate Mean” value ([2]; TMX 6000 mg/L, 24 hours) of the same molecule?
**A.** 95%

**Q.** What about the “Transplant Rate Mean” value ([2]; TMX 6000 mg/L, 24 hours) of the same molecule?
**A.** 93%

**Q.** What about the “Ears >4 DH Yield, DH Ears/Total Haploids, Mean” value ([3]; TMX 4000 mg/L, 48 hours) of the same molecule?
**A.** 0.29

**Q.** And the “Ears >4 DH Yield, DH Ears/Transplants, Mean” value ([3]; TMX 4000 mg/L, 48 hours)?
**A.** 0.37

**Q.** And the “Ears >49 DH Yield, DH Ears/Total Haploids, Mean” value ([3]; TMX 4000 mg/L, 48 hours)?
**A.** 0.12

**Q.** And the “Ears >49 DH Yield, DH Ears/Transplants, Mean” value ([3]; TMX 4000 mg/L, 48 hours)?
**A.** 0.16

**Q.** What about the “Ears >4 DH Yield, DH Ears/Transplants, Mean” value ([3]; TMX 6000 mg/L, 24 hours) of the same molecule?
**A.** 0.44

**Q.** What about the “Ears >49 DH Yield, DH Ears/Total Haploids, Mean” value ([3]; TMX 6000 mg/L, 24 hours) of the same molecule?
**A.** 0.20

**Q.** What about the “Ears >49 DH Yield, DH Ears/Transplants, Mean” value ([3]; TMX 6000 mg/L, 24 hours) of the same molecule?
**A.** 0.21

**Q.** And the “Ears >4 Rate Mean” value ([3]; TMX 4000 mg/L, 48 hours)?
**A.** 30%

**Q.** What about the “Ears >49 Rate Mean” value ([3]; TMX 4000 mg/L, 48 hours) of the same molecule?
**A.** 13%

**Q.** And the “Ears >4 Rate Mean” value ([3]; TMX 6000 mg/L, 24 hours)?
**A.** 45%

**Q.** And the “Ears >49 Rate Mean” value ([3]; TMX 6000 mg/L, 24 hours)?
**A.** 24%

**Q.** And the “GST27 Induction After” value [4, 10]?
**A.** 255 ng/mg TSP

**Q.** And the “GST27 Induction Before” value [4, 10]?
**A.** 0 ng/mg TSP

**Q.** And the “GST27 Induction After” value [4, 11]?
**A.** 194 ng/mg TSP

**Q.** What about the “GST27 Induction Before” value [4, 11] of the same molecule?
**A.** 1 ng/mg TSP

**Q.** And the “GST27 Induction After” value [4, 12]?
**A.** 193 ng/mg TSP

**Q.** And the “GST27 Induction Before” value [4, 12]?
**A.** 5 ng/mg TSP

**Q.** What about the “GST27 Induction After” value [4, 13] of the same molecule?
**A.** 208 ng/mg TSP

**Q.** What about the “GST27 Induction Before” value [4, 13] of the same molecule?
**A.** 13 ng/mg TSP

**Q.** And the “Potting Rate Mean” value [5, 10]?
**A.** 92.3%

**Q.** And the “Transplant Rate Mean” value [5, 10]?
**A.** 90% and 89.7%

**Q.** What about the “Potting Rate Mean” value [5, 11] of the same molecule?
**A.** 79.4%

**Q.** What about the “Transplant Rate Mean” value [5, 11] of the same molecule?
**A.** 72.2%

**Q.** And the “Potting Rate Mean” value [5, 12]?
**A.** 77.3%

**Q.** What about the “Transplant Rate Mean” value [5, 12] of the same molecule?
**A.** 81.3%

**Q.** And the “Potting Rate Mean” value [5, 13]?
**A.** 58.0%

**Q.** And the “Transplant Rate Mean” value [5, 13]?
**A.** 54.0%
